Reference: US10087178B2, “Substituted spiropyrido[1,2-a]pyrazine derivative and medicinal use thereof as HIV integrase inhibitor” (priority 2012, dated 2018)
Counter-ions that a name gives are not always drawn.

System: HIV-1 NL4-3 strain
Assay: Evaluation of antiviral activity: acute infection system of MT-4 cell with HIV-1 NL4-3 strain
Type: cell-based
Conditions: Human immunodeficiency virus 1, NL43, MT4, 120 h, MT-4 cells infected with HIV-1 NL4-3 strain (MOI 0.05), cultured 5 days, Cell Titer-Glo; read-out: antiviral activity (EC50)

## CC(C)O[C@H]1C[C@@]2(CN(C)C(=O)c3c(O)c(=O)c(C(=O)NCc4cccc(Cl)c4F)cn32)C1 [Example S40, N-(3-chloro-2-fluorobenzyl)-9′-hydroxy-trans-3-isopropoxy-2′-methyl-1′-8′-dioxo-1′,2′,3′,8′-tetrahydrospiro[cyclobutane-1,4′-pyrido[1,2-a]pyrazine]-7′-carboxamide hydrochloride]
  EC50: 2.3 nM

## CC(C)O[C@H]1C[C@]2(CN(C)C(=O)c3c(O)c(=O)c(C(=O)NCc4cccc(Cl)c4F)cn32)C1 [Example S41, N-(3-chloro-2-fluorobenzyl)-9′-hydroxy-cis-3-isopropoxy-2′-methyl-1′,8′-dioxo-1′,2′,3′,8′-tetrahydrospiro[cyclobutane-1,4′-pyrido[1,2-a]pyrazine]-7′-carboxamide hydrochloride]
  EC50: 3.5 nM

## CCCO[C@H]1C[C@@]2(CN(C)C(=O)c3c(O)c(=O)c(C(=O)NCc4cccc(Cl)c4F)cn32)C1 [Example S42, N-(3-chloro-2-fluorobenzyl)-9′-hydroxy-2′-methyl-1′,8′-dioxo-trans-3-propoxy-1′,2′,3′,8′-tetrahydrospiro[cyclobutane-1,4′-pyrido[1,2-a]pyrazine]-7′-carboxamide hydrochloride]
  EC50: 4.3 nM

## CCCO[C@H]1C[C@]2(CN(C)C(=O)c3c(O)c(=O)c(C(=O)NCc4cccc(Cl)c4F)cn32)C1 [Example S43, N-(3-chloro-2-fluorobenzyl)-9′-hydroxy-2′-methyl-1′-8′-dioxo-cis-3-propoxy-1′,2′,3′,8′-tetrahydrospiro[cyclobutane-1,4′-pyrido[1,2-a]pyrazine]-7′-carboxamide hydrochloride]
  EC50: 4.7 nM

## CCN1C[C@]2(C[C@@H](CO)C2)n2cc(C(=O)NCc3cccc(Cl)c3F)c(=O)c(O)c2C1=O [Example S44, N-(3-chloro-2-fluorobenzyl)-2′-ethyl-9′-hydroxy-trans-3-(hydroxymethyl)-1′,8′-dioxo-1′,2′,3′,8′-tetrahydrospiro[cyclobutane-1,4′-pyrido[1,2-a]pyrazine]-7′-carboxamide hydrochloride]
  EC50: 11 nM

## CCN1C[C@]2(C[C@@H](COC)C2)n2cc(C(=O)NCc3cccc(Cl)c3F)c(=O)c(O)c2C1=O [Example S45, N-(3-chloro-2-fluorobenzyl)-2′-ethyl-9′-hydroxy-trans-3-(methoxymethyl)-1′,8′-dioxo-1′,2′,3′,8′-tetrahydrospiro[cyclobutane-1,4′-pyrido[1,2-a]pyrazine]-7′-carboxamide hydrochloride]
  EC50: 3.9 nM

## CCN1C[C@]2(C[C@H](CO)C2)n2cc(C(=O)NCc3cccc(Cl)c3F)c(=O)c(O)c2C1=O [Example S46, N-(3-chloro-2-fluorobenzyl)-2′-ethyl-9′-hydroxy-cis-3-(hydroxymethyl)-1′,8′-dioxo-1′,2′,3′,8′-tetrahydrospiro[cyclobutane-1,4′-pyrido[1,2-a]pyrazine]-7′-carboxamide hydrochloride]
  EC50: 4.4 nM

## CCN1C[C@]2(C[C@H](COC)C2)n2cc(C(=O)NCc3cccc(Cl)c3F)c(=O)c(O)c2C1=O [Example S47, N-(3-chloro-2-fluorobenzyl)-2′-ethyl-9′-hydroxy-cis-3-(methoxymethyl)-1′,8′-dioxo-1′,2′,3′,8′-tetrahydrospiro[cyclobutane-1,4′-pyrido[1,2-a]pyrazine]-7′-carboxamide hydrochloride]
  EC50: 3.5 nM

## CCOC[C@H]1C[C@]2(CN(CC)C(=O)c3c(O)c(=O)c(C(=O)NCc4cccc(Cl)c4F)cn32)C1 [Example S48, N-(3-chloro-2-fluorobenzyl)- cis-3-(ethoxymethyl)-2′-ethyl-9′-hydroxy-1′,8′-dioxo-1′,2′,3′,8′-tetrahydrospiro[cyclobutane-1,4′-pyrido[1,2-a]pyrazine]-7′-carboxamide hydrochloride]
  EC50: 4.3 nM

## COc1ccc(CNC(=O)c2cn3c(c(O)c2=O)C(=O)N(C)C[C@]32C[C@@H](CO)C2)c(F)c1Cl [Example S49]
  EC50: 65 nM

## COc1ccc(CNC(=O)c2cn3c(c(O)c2=O)C(=O)N(C)C[C@]32C[C@H](CO)C2)c(F)c1Cl [Example S50, N-(3-chloro-2-fluoro-4-methoxybenzyl)-9′-hydroxy- cis-3-(hydroxymethyl)-2′-methyl-1′,8′-dioxo-1′,2′,3′,8′-tetrahydrospiro[cyclobutane-1,4′-pyrido[1,2-a]pyrazine]-7′-carboxamide]
  EC50: 37 nM

## CCO[C@H]1C[C@]2(CN(C)C(=O)c3c(O)c(=O)c(C(=O)NCc4ccc(F)cc4F)cn32)C1 [Example S51, N-(2,4-difluorobenzyl)-cis-3-ethoxy-9′-hydroxy-2′-methyl-1′,8′-dioxo-1′,2′,3′,8′-tetrahydrospiro[cyclobutane-1,4′-pyrido[1,2-a]pyrazine]-7′-carboxamide hydrochloride]
  EC50: 2.4 nM

## CO[C@H]1C[C@@]2(Cn3cc(C(=O)NCc4ccc(F)cc4F)c(=O)c(O)c3C(=O)N2C(C)C)C1 [Example S52, N-(2,4-difluorobenzyl)-9′-hydroxy-2′-isopropyl-trans-3-methoxy-1′,8′-dioxo-1′,2′,4′,8′-tetrahydrospiro[cyclobutane-1,3′-pyrido[1,2-a]pyrazine]-7′-carboxamide hydrochloride]
  EC50: 3.5 nM

## CO[C@H]1C[C@]2(Cn3cc(C(=O)NCc4ccc(F)cc4F)c(=O)c(O)c3C(=O)N2C(C)C)C1 [Example S53, N-(2,4-difluorobenzyl)-9′-hydroxy-2′-isopropyl-cis-3-methoxy-1′,8′-dioxo-1′,2′,4′,8′-tetrahydrospiro[cyclobutane-1,3′-pyrido[1,2-a]pyrazine]-7′-carboxamide hydrochloride]
  EC50: 10 nM

## CC(C)N1C(=O)c2c(O)c(=O)c(C(=O)NCc3ccc(F)cc3F)cn2C[C@]12C[C@@H](O)C2 [Example S54, N-(2,4-difluorobenzyl)- trans-3,9′-dihydroxy-2′-isopropyl-1′,8′-dioxo-1′,2′,4′,8′-tetrahydrospiro[cyclobutane-1,3′-pyrido[1,2-a]pyrazine]-7′-carboxamide hydrochloride]
  EC50: 27 nM

## CC(C)N1C(=O)c2c(O)c(=O)c(C(=O)NCc3ccc(F)cc3F)cn2C[C@]12C[C@H](O)C2 [Example S55, N-(2,4-difluorobenzyl)-cis-3,9′-dihydroxy-2′-isopropyl-1′,8′-dioxo-1′,2′,4′,8′-tetrahydrospiro[cyclobutane-1,3′-pyrido[1,2-a]pyrazine]-7′-carboxamide hydrochloride]
  EC50: 33 nM

## CCO[C@H]1C[C@@]2(Cn3cc(C(=O)NCc4cccc(Cl)c4F)c(=O)c(O)c3C(=O)N2CC)C1 [Example S56, N-(3-chloro-2-fluorobenzyl)- trans-3-ethoxy-2′-ethyl-9′-hydroxy-1′,8′-dioxo-1′,2′,4′,8′-tetrahydrospiro[cyclobutane-1,3′-pyrido[1,2-a]pyrazine]-7′-carboxamide hydrochloride]
  EC50: 5.1 nM

## CCO[C@H]1C[C@]2(Cn3cc(C(=O)NCc4cccc(Cl)c4F)c(=O)c(O)c3C(=O)N2CC)C1 [Example S57, N-(3-chloro-2-fluorobenzyl)- cis-3-ethoxy-2′-ethyl-9′-hydroxy-1′,8′-dioxo-1′,2′,4′,8′-tetrahydrospiro[cyclobutane-1,3′-pyrido[1,2-a]pyrazine]-7′-carboxamide hydrochloride]
  EC50: 4.7 nM

## CCN1C(=O)c2c(O)c(=O)c(C(=O)NCc3cccc(Cl)c3F)cn2C[C@]12C[C@@H](CO)C2 [Example S58, N-(3-chloro-2-fluorobenzyl)-2′-ethyl-9′-hydroxy-trans-3-(hydroxymethyl)-1′,8′-dioxo-1′,2′,4′,8′-tetrahydrospiro[cyclobutane-1,3′-pyrido[1,2-a]pyrazine]-7′-carboxamide hydrochloride]
  EC50: 6.8 nM

## CCN1C(=O)c2c(O)c(=O)c(C(=O)NCc3cccc(Cl)c3F)cn2C[C@]12C[C@@H](COC)C2 [Example S59, N-(3-chloro-2-fluorobenzyl)-2′-ethyl-9′-hydroxy-trans-3-(methoxymethyl)-1′,8′-dioxo-1′,2′,4′,8′-tetrahydrospiro[cyclobutane-1,3′-pyrido[1,2-a]pyrazine]-7′-carboxamide hydrochloride]
  EC50: 4 nM

## CCN1C(=O)c2c(O)c(=O)c(C(=O)NCc3cccc(Cl)c3F)cn2C[C@]12C[C@H](CO)C2 [Example S60, N-(3-chloro-2-fluorobenzyl)-2′-ethyl-9′-hydroxy-cis-3-(hydroxymethyl)-1′,8′-dioxo-1′,2′,4′,8′-tetrahydrospiro[cyclobutane-1,3′-pyrido[1,2-a]pyrazine]-7′-carboxamide hydrochloride]
  EC50: 13 nM

## CCN1C(=O)c2c(O)c(=O)c(C(=O)NCc3cccc(Cl)c3F)cn2C[C@]12C[C@H](COC)C2 [Example S61, N-(3-chloro-2-fluorobenzyl)-2′-ethyl-9′-hydroxy-cis-3-(methoxymethyl)-1′,8′-dioxo-1′,2′,4′,8′-tetrahydrospiro[cyclobutane-1,3′-pyrido[1,2-a]pyrazine]-7′-carboxamide hydrochloride]
  EC50: 5.1 nM

## CO[C@H]1C[C@@]2(Cn3cc(C(=O)NCc4cccc(Cl)c4F)c(=O)c(O)c3C(=O)N2C)C1 [Example S62, N-(3-chloro-2-fluorobenzyl)-9′-hydroxy-trans-3-methoxy-2′-methyl-1′,8′-dioxo-1′,2′,4′,8′-tetrahydrospiro[cyclobutane-1,3′-pyrido[1,2-a]pyrazine]-7′-carboxamide hydrochloride]
  EC50: 4.6 nM

## CO[C@H]1C[C@]2(CN(C)C(=O)c3c(OC(C)=O)c(=O)c(C(=O)NCc4cccc(Cl)c4F)cn32)C1 [Example S64, 7′-(3-chloro-2-fluorobenzylcarbamoyl)-cis-3-methoxy-2′-methyl-1′,8′-dioxo-1′,2′,3′,8′-tetrahydrospiro[cyclobutane-1,4′-pyrido[1,2-a]pyrazin]-9′-yl acetate]
  EC50: 2.8 nM

## CCC(=O)Oc1c2n(cc(C(=O)NCc3cccc(Cl)c3F)c1=O)[C@]1(CN(C)C2=O)C[C@H](OC)C1 [Example S65, 7′-(3-chloro-2-fluorobenzylcarbamoyl)-cis-3-methoxy-2′-methyl-1′,8′-dioxo-1′,2′,3′,8′-tetrahydrospiro[cyclobutane-1,4′-pyrido[1,2-a]pyrazin]-9′-yl propionate]
  EC50: 1 nM
